These results are taken from patent publication US20120059005A1, “COMBINATION OF (A) A PHOSPHOINOSITIDE 3-KINASE INHIBITOR AND (B) AN ANTIDIABETIC COMPOUND FOR USE IN THE TREATMENT OF PROLIFERATIVE DISEASES” (NOVARTIS AG, priority 2009, published 2012).

Like-named read-outs stand apart in the source and are kept apart here.

The procedure of series [1]:
(§1) 0.2 mL of H460 tumor cell suspension (1×10^7 cells) is injected subcutaneously in the right flank of 9-week old female nu/nu (nude) mice (Harlan Laboratories, Indianapolis, Ind.) having a body weight (BW) range of 18.1-26.9 g on Day 1 of the study. Tumors are monitored twice weekly and then daily as their mean volume approaches 100-150 mm^3. Ten days after implantation, the mice are sorted into 11 groups of eight mice having individual tumor sizes of 75-196 mm^3 and a group mean tumor size of 119-122 mm^3. Tumor volume in mm^3 is determined using the formula [(width)^2×(length)]/2, where width width of the tumor in mm and length length of the tumor in mm. Tumor weight can be estimated with the assumption that 1 mg is equivalent to 1 mm^3 of tumor volume.
(§2) The 11 groups of nude mice are treated as follows. One group of eight mice serves as Controls (C or Control) for all analyses and is administered intraperitoneally (i.p.) 50 mM sodium acetate at pH 4 (Vehicle 1) and then administered by oral gavage (p.o.) a composition comprising 10% N-methylpyrrolidone 90% polyethylene glycol 300 (PEG300) (Vehicle 2). […] Metformin is dissolved in 50 mM sodium acetate at pH 4 for dosing.
(§3) Compound A is stored at −20° C. Compound C is stored at −20° C. protected from light. Stock solutions (10×) in 100% N-rnethylpyrrolidone (NMP) are prepared every five days, aliquotted, and stored in the dark at room temperature. On each treatment day, stock solution aliquots are diluted with polyethylene glycol (PEG300) to provide the formulated drug (Compound A or Compound C) in 10% NMP: 90% PEG300. Dosing solutions are protected from light, and the formulated drug is administered within 1 hour after preparation.
(§4) For combination therapies, Compound A or Compound C are administered by oral gavage (p.o.) within 30 minutes after the intraperitoneal (i.p.) administration of metformin, except on Day 20 when Compound A or Compound C is given immediately after metformin.
(§5) Paclitaxel (Natural Pharmaceuticals, Inc., Beverly, Mass., USA) is administered by bolus tail-vein injections (i.v.) once daily on alternate days for five doses. Paclitaxel is dissolved in 50% ethanol and 50% Crernophor® EL to prepare a 10× stock solution stored at room temperature. On each day of dosing, an aliquot of the paclitaxel stock solution is diluted with 5% dextrose in water to yield a dosing solution containing 5% ethanol and 5% Cremophor® EL.
(§6) In all groups, the dosing volume of 10 mL/kg (0.2 mL/20 g mouse) is scaled to the weight of each animal as determined on the day of dosing, except on weekends when the previous BW is carried fontvard.

In series [2] the test system is H460 non-small cell lung tumors. The series can be described thus: H460 xenograft 12-day tumor growth inhibition assay. The conditions noted are these: for Mean Tumor Vol. Change / Regression / T/C: Day 12. In kind it is in vivo, nude mice. Here is the method: H460 human non-small cell lung cancer (NSCLC) cells are treated with, different doses of 2-Methyl-2-[4-(3-methyl-2-oxo-8-quinolln-3-yl-2,3-dihydro-imidazo[4, 5-c]quinolin-1-yl)-phenyl]-propionitrile monotosylate salt (also known as COMPOUND A) or 5,-(2,6-di-rnorpholin-4-yl-pyrimidin-4-yl)-4-trifluoromethyl-pyridin-2-ylamine hydrochloride salt (also known as COMPOUND C), a single dose of metformin or both agents in combination, The H460 human NSCLC cells (NCl-H460. ATCC-HTB-177, available from American Type Culture Collection, FRockville, Md. US) are derived from the pleural fluid of a patient with large cell cancer of the lung.
H460 tumor cells are grown in RPMI 1640 medium containing 100 units/mL penicillin G sodium, 100 μg/mL streptomycin sulfate, and 25 μg/mL gentamicin. The medium is supplemented with 10% fetal bovine serum and 2 mM glutamine. The cells are cultured in tissue culture flasks in a humidified incubator at 37° C., in an atmosphere of 5% CO2 and 95% air. The cells are harvested for injection into 9-week old female nu/nu (nude) mice (Harlan Laboratories, Indianapolis, Ind.) by detaching the monolayers with 2× trypsin and resuspending at 5×10^7 cells/mL in phosphate-buffered saline.
as §1, §2, §3, §4, §5, §6

Where [3] appears, read: Compound A 41.1 mg/kg p.o., 1x daily.
Setting [4] is: Compound A 68.5 mg/kg p.o., 1x daily.
[5] abbreviates: Compound C 32.7 mg/kg p.o., 1x daily.
[6] abbreviates: Compound C 54.4 mg/kg p.o., 1x daily until day 10 (stopped due to toxicity).
[7] abbreviates: Metformin 192.3 mg/kg i.p., 1x daily.
[8] abbreviates: Paclitaxel 30 mg/kg i.v., 1x on alternate days for 5 doses.

As usually defined, the T/C is the result in the treated group divided by that in the control group, in per cent. Take `Cn1c(=O)n(-c2ccc(C(C)(C)C#N)cc2)c2c3cc(-c4cnc5ccccc5c4)ccc3ncc21` [Compound A, 2-Methyl-2-[4-(3-methyl-2-oxo-8-quinolin-3-yl-2,3-dihydro-imidazo[4,5-c]quinolin-1-yl)-phenyl]-propionitrile]: in series [1] (female, nu/nu (nude), mouse, in vivo, po, 41.1 mg/kg), the Dead/Total is 0/8. For the same compound, the Dead/Total in series [1] (female, nu/nu (nude), mouse, in vivo, po, 68.5 mg/kg) is listed as 0/8. Further, in series [2] (setting [3]), the “Mean Tumor Vol. Change” value was determined as 809 mm^3, the Regression result was “None” and the T/C is listed as 54% (ns,. Further, in series [2] (setting [4]), the “Mean Tumor Vol. Change” value is recorded as 448 mm^3, the Regression result is given as “None” and the T/C is 30% (ns,.

As to `Nc1cc(C(F)(F)F)c(-c2cc(N3CCOCC3)nc(N3CCOCC3)n2)cn1` [Compound C, 5-(2,6-di-morpholin-4-yl-pyrimidin-4-yl)-4-trifluoromethyl-pyridin-2-ylamine], in series [2] (setting [5]), the “Mean Tumor Vol. Change” value turned out to be 880 mm^3, the Regression result is recorded as “None” and the T/C was 59% (ns,. Further, in series [2] (setting [6]), the “Mean Tumor Vol. Change” value is on record as 110 mm^3 and the Regression result is “None”. In addition, the T/C in series [2] (Compound C 54.4 mg/kg p.o., 1x daily until day 10 (stopped due to toxicity), not evaluable (ne)) is on record as 7% (ne,.

`CN(C)C(=N)N=C(N)N` [Metformin, dimethyldiguanide, reference compound]: in series [1] (setting [7]), the Dead/Total is on record as 0/8. In series [2] (setting [7]), the “Mean Tumor Vol. Change” value was 1516 mm^3, the Regression result was “None” and the T/C was 101% (ns,. Besides, the “enhancement of efficacy or tolerability in combination with COMPOUND C” value in series [2] (metformin in combination with COMPOUND C, overall conclusion) is recorded as “does not appear to enhance efficacy or tolerability”. Also, in series [2] (metformin monotherapy at 192.3 mg/kg), the “impact on tumor growth in the 12-day tumor growth inhibition assay” value is “did not appear to impact tumor growth”.

As to `CC(=O)O[C@H]1C(=O)[C@@]2(C)[C@H]([C@H](OC(=O)c3ccccc3)[C@]3(O)C[C@H](OC(=O)[C@H](O)[C@@H](NC(=O)c4ccccc4)c4ccccc4)C(C)=C1C3(C)C)[C@]1(OC(C)=O)CO[C@@H]1C[C@@H]2O` [Paclitaxel, reference compound], the Dead/Total in series [1] (setting [8]) was 0/8. Besides, in series [2] (setting [8]), the “Mean Tumor Vol. Change” value came out at 227 mm^3, the Regression entry is listed as “None” and the T/C is reported as 15%.
